Assay results: PubChem BioAssay (NCI)
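All cell lines were grown in 96-well plates and treated with compound for 48 hours. Abbreviation: GI50, concentration required for 50% inhibition of growth. Definition used: TGI = concentration required for complete inhibition of growth.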

Legend:
Assay in all cases: inhibition of tumour cell growth, NCI panel, 48 h
[1] = tested on: NCI-H226 lung
[2] = tested on: NCI-H23 lung
[3] = tested on: NCI-H460 lung
[4] = tested on: NCI-H522 lung
[5] = tested on: NCI/ADR-RES ovarian
[6] = tested on: OVCAR-3 ovarian
[7] = tested on: OVCAR-4 ovarian
[8] = tested on: OVCAR-5 ovarian
[9] = tested on: OVCAR-8 ovarian
[10] = tested on: PC-3 prostate
[11] = tested on: RPMI-8226 leukemia
[12] = tested on: RXF 393 renal
[13] = tested on: SF-268 CNS
[14] = tested on: SF-295 CNS
[15] = tested on: SF-539 CNS
[16] = tested on: SK-MEL-2 melanoma
[17] = tested on: SK-MEL-28 melanoma
[18] = tested on: SK-MEL-5 melanoma
[19] = tested on: SK-OV-3 ovarian
[20] = tested on: SN12C renal
[21] = tested on: SNB-19 CNS
[22] = tested on: SNB-75 CNS
[23] = tested on: SR leukemia
[24] = tested on: SW-620 colon
[25] = tested on: T-47D breast
[26] = tested on: TK-10 renal
[27] = tested on: U251 CNS
[28] = tested on: UACC-257 melanoma
[29] = tested on: UACC-62 melanoma

O=c1c2c(=NCCN3CCCC3)cc3c(=O)n(CCCN4CCOCC4)c(=O)c4ccc(c(O)n1CCCN1CCOCC1)c2c4-3
TGI [1]: 830 nM | GI50 [2]: 118 nM | TGI [2]: 627 nM | GI50 [3]: 79.1 nM | TGI [3]: 1080 nM | GI50 [4]: 102 nM | TGI [4]: 438 nM | GI50 [5]: 166 nM | TGI [5]: 12000 nM | GI50 [6]: 99.4 nM | TGI [6]: 1000 nM | GI50 [7]: 130 nM | TGI [7]: 735 nM | GI50 [8]: 113 nM | TGI [8]: 1210 nM | GI50 [9]: 100 nM | TGI [9]: > 32800 nM | GI50 [10]: 91.9 nM | TGI [10]: 638 nM | GI50 [11]: 146 nM | TGI [11]: 1090 nM | GI50 [12]: 104 nM | TGI [12]: 266 nM | GI50 [13]: 165 nM | TGI [13]: 751 nM | GI50 [14]: 231 nM | TGI [14]: 840 nM | GI50 [15]: 345 nM | TGI [15]: 1430 nM | GI50 [16]: 239 nM | TGI [16]: 874 nM | GI50 [17]: 454 nM | TGI [17]: 1740 nM | GI50 [18]: 442 nM | TGI [18]: 918 nM | GI50 [19]: 381 nM | TGI [19]: 2150 nM | GI50 [20]: 138 nM | TGI [20]: 4540 nM | GI50 [21]: 168 nM | TGI [21]: 2090 nM | GI50 [22]: 234 nM | TGI [22]: 1460 nM | GI50 [23]: < 20.1 nM | TGI [23]: 5370 nM | GI50 [24]: < 19.2 nM | TGI [24]: 1070 nM | GI50 [25]: 273 nM | TGI [25]: 2200 nM | GI50 [26]: 195 nM | TGI [26]: 1620 nM | GI50 [27]: 110 nM | TGI [27]: 1950 nM | GI50 [28]: 707 nM | TGI [28]: 3760 nM | GI50 [29]: 350 nM | TGI [29]: 966 nM
